{"source": "patent US8933224B2", "about": "“Triazine derivatives” (Pfizer Inc., priority 2013, dated 2015)", "molecular_target": "rat PDE10 enzyme (Rattus norvegicus (Rat), UniProt Q9QYJ6)", "sequence (Q9QYJ6 24-794)": "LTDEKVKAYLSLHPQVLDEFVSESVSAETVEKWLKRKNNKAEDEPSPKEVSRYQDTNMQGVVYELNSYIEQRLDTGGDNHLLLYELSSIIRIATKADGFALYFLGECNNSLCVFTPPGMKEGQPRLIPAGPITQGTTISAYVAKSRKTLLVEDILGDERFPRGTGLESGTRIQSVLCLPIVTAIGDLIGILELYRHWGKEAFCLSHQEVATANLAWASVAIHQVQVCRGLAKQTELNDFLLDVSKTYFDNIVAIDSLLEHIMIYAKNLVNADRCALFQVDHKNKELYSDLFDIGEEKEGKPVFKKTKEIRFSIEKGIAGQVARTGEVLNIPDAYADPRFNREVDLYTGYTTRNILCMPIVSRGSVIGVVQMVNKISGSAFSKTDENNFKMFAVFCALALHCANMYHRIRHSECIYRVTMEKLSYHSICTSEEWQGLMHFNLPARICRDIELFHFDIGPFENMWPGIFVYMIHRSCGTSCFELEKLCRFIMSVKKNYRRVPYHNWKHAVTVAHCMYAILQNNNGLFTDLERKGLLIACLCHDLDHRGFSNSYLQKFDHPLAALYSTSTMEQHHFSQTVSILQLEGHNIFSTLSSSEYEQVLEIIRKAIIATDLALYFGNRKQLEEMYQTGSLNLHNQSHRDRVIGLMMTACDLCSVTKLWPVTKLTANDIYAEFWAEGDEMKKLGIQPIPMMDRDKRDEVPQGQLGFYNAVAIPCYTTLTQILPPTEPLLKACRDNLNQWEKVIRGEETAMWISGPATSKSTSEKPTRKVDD", "experiment": "PDE10 scintillation proximity assay (SPA), inhibition of rat PDE10 enzyme activity", "assay_type": "biochemical", "details": "geometric mean of 2-4 determinations unless otherwise indicated (b: ≧5 determinations; c: single determination)", "experimental": "PDE10 activity was measured using a scintillation assay (SPA-based method) similar to that previously described by Seeger, T. F. et al., Brain Research 985 (2003) 113-126. The compounds' relative activity as PDE10 inhibitors was investigated by assaying a fixed amount of enzyme in the presence of the test compound and low substrate concentration (cAMP) such that an IC50 could be determined. […] The assay is performed in a 384-well format with 50 μL assay buffer (50 mM TRIS pH 7.5; 1.3 mM MgCl2; 0.01% Brij) containing enough PDE10 to convert ˜20% of 20 nM ^3H-cAMP, and a range of inhibitors. Reactions are incubated for 30 minutes at 25° C. The addition of 20 μL of 8 mg/ml yttrium silicate SPA beads (PerkinElmer) stops the reaction. The plates are sealed (TopSeal, PerkinElmer) and the beads are allowed to settle for 8 hrs, after which they are read on the Trilux Microbeta overnight. ^1Rat enzyme preparation:^2Human enzyme preparation:\nThe recombinant Bacmid was isolated and used to transfect sf9 insect cells to generate a viral stock. To generate cell paste for purification, sf21 cells were infected with the virus stock and cells were harvested 72 hours after infection as described in Seeger, T. F. et al., Brain Research 985 (2003) 113-126. Insect cell paste was lysed and after centrifugation, the supernatant was chromatographed on Ni-NTA agarose (Qiagen) followed by Mono Q (GE Healthcare Life Sciences) as described in Seeger, T. F. et al., Brain Research 985 (2003) 113-126.", "data": [{"molecule": "CCn1c(C2CC2)nc2c(c1=O)CN(c1ncnn3c(C)nc(-c4ccccc4F)c13)CC2", "note": "[Example 149, 2-cyclopropyl-3-ethyl-6-[5-(2-fluorophenyl)-7-methylimidazo[5,1-f][1,2,4]triazin-4-yl]-5,6,7,8-tetrahydropyrido[4,3-d]pyrimidin-4(3H)-one]", "values": [{"measurement": "IC50", "result": 0.497, "unit": "nM"}]}, {"molecule": "Cc1nc([C@H]2CCOC2)c2c(N3CCc4ncncc4C3)ncnn12", "note": "[Example 63, 6-{7-methyl-5-[(3R)-tetrahydrofuran-3-yl]imidazo[5,1-f][1,2,4]triazin-4-yl}-5,6,7,8-tetrahydropyrido[4,3-d]pyrimidine]", "values": [{"measurement": "IC50", "result": 133, "unit": "nM"}]}, {"molecule": "CCc1c2c(nn1C)CCN(c1ncnn3c(C)nc(C4CCOCC4)c13)C2", "note": "[Example 105, 4-(3-ethyl-2-methyl-2,4,6,7-tetrahydro-5H-pyrazolo[4,3-c]pyridin-5-yl)-7-methyl-5-(tetrahydro-2H-pyran-4-yl)imidazo[5,1-f][1,2,4]triazine]", "values": [{"measurement": "IC50", "result": 1.88, "unit": "nM"}]}, {"molecule": "Cc1nn(C)c2c1CN(c1ncnn3c(C)nc([C@@H]4CCOC4)c13)CC2", "note": "[Example 93, 4-(1,3-dimethyl-1,4,6,7-tetrahydro-5H-pyrazolo[4,3-c]pyridin-5-yl)-7-methyl-5-[(3S)-tetrahydrofuran-3-yl]imidazo[5,1-f][1,2,4]triazine]", "values": [{"measurement": "IC50", "result": 0.761, "unit": "nM"}]}, {"molecule": "Cc1nc(-c2ccccc2F)c2c(N3Cc4ccccc4CC3C)ncnn12", "note": "(stereo not drawn) [Example 116, 2-[5-(2-fluorophenyl)-7-methylimidazo[5,1-f][1,2,4]triazin-4-yl]-3-methyl-1,2,3,4-tetrahydroisoquinoline]", "values": [{"measurement": "IC50", "result": 8.01, "unit": "nM"}]}, {"molecule": "CCc1onc2c1CN(c1ncnn3c(C)nc([C@@H]4CCOC4)c13)CC2", "note": "[Example 31]", "values": [{"measurement": "IC50", "result": 3.73, "unit": "nM"}]}, {"molecule": "Cc1nc([C@H]2CCCO2)c2c(N3CCc4noc(C5CC5)c4C3)ncnn12", "note": "[Example 78, 4-(3-cyclopropyl-6,7-dihydro[1,2]oxazolo[4,3-c]pyridin-5(4H)-yl)-7-methyl-5-[(2R)-tetrahydrofuran-2-yl]imidazo[5,1-f][1,2,4]triazine]", "values": [{"measurement": "IC50", "result": 3.89, "unit": "nM"}]}, {"molecule": "Cc1ccc2c(n1)CN(c1ncnn3c(C)nc(-c4ccccc4F)c13)CC2", "note": "[Example 73, 7-[5-(2-fluorophenyl)-7-methylimidazo[5,1-f][1,2,4]triazin-4-yl]-2-methyl-5,6,7,8-tetrahydro-1,7-naphthyridine]", "values": [{"measurement": "IC50", "result": 6.81, "unit": "nM"}]}, {"molecule": "CCn1c(C)nc2c(c1=O)CN(c1ncnn3c(C)nc(-c4ccccc4F)c13)CC2", "note": "[Example 126, 3-ethyl-6-[5-(2-fluorophenyl)-7-methylimidazo[5,1-f][1,2,4]triazin-4-yl]-2-methyl-5,6,7,8-tetrahydropyrido[4,3-d]pyrimidin-4(3H)-one]", "values": [{"measurement": "IC50", "result": 1.19, "unit": "nM"}]}, {"molecule": "Cc1noc2c1CN(c1ncnn3c(C)nc([C@@H]4CCOC4)c13)CC2", "note": "[Example 34, 7-methyl-4-(3-methyl-6,7-dihydro[1,2]oxazolo[4,5-c]pyridin-5(4H)-yl)-5-[(3S)-tetrahydrofuran-3-yl]imidazo[5,1-f][1,2,4]triazine]", "values": [{"measurement": "IC50", "result": 16.5, "unit": "nM"}]}, {"molecule": "Cc1nc(C2CCOCC2)c2c(N3CCc4nc(C5CC5)ncc4C3)ncnn12", "note": "[Example 61, 2-cyclopropyl-6-[7-methyl-5-(tetrahydro-2H-pyran-4-yl)imidazo[5,1-f][1,2,4]triazin-4-yl]-5,6,7,8-tetrahydropyrido[4,3-d]pyrimidine]", "values": [{"measurement": "IC50", "result": "< 3.52", "unit": "nM"}]}, {"molecule": "Cc1nc([C@@H]2CCOC2)c2c(N3CCc4nc(C5CC5)nc(C(F)(F)F)c4C3)ncnn12", "note": "[Example 89, 2-cyclopropyl-6-{7-methyl-5-[(3S)-tetrahydrofuran-3-yl]imidazo[5,1-f][1,2,4]triazin-4-yl}-4-(trifluoromethyl)-5,6,7,8-tetrahydropyrido[4,3-d]pyrimidine]", "values": [{"measurement": "IC50", "result": 0.561, "unit": "nM"}]}, {"molecule": "Cc1nn(C)c2c1CN(c1ncnn3c(C)nc(C4CCOCC4)c13)CC2", "note": "[Example 103, 4-(1,3-dimethyl-1,4,6,7-tetrahydro-5H-pyrazolo[4,3-c]pyridin-5-yl)-7-methyl-5-(tetrahydro-2H-pyran-4-yl)imidazo[5,1-f][1,2,4]triazine]", "values": [{"measurement": "IC50", "result": 5.13, "unit": "nM"}]}, {"molecule": "Cc1nc2c(c(OC(F)F)n1)CN(c1ncnn3c(C)nc(-c4ccccc4F)c13)CC2", "note": "[Example 125, 4-(difluoromethoxy)-6-[5-(2-fluorophenyl)-7-methylimidazo[5,1-f][1,2,4]triazin-4-yl]-2-methyl-5,6,7,8-tetrahydropyrido[4,3-d]pyrimidine]", "values": [{"measurement": "IC50", "result": 6.4, "unit": "nM"}]}, {"molecule": "Cc1nc([C@H]2CCOC2)c2c(N3CCc4nn(C(C)C)cc4C3)ncnn12", "note": "[Example 100, 7-methyl-4-[2-(propan-2-yl)-2,4,6,7-tetrahydro-5H-pyrazolo[4,3-c]pyridin-5-yl]-5-[(3R)-tetrahydrofuran-3-yl]imidazo[5,1-f][1,2,4]triazine]", "values": [{"measurement": "IC50", "result": 23, "unit": "nM"}]}, {"molecule": "Cc1nc(-c2ccccc2F)c2c(N3CCc4noc(C5CC5)c4C3)ncnn12", "note": "[Example 46, 4-(3-cyclopropyl-6,7-dihydroisoxazolo[4,3-c]pyridin-5(4H)-yl)-5-(2-fluorophenyl)-7-methylimidazo[5,1-f][1,2,4]triazine]", "values": [{"measurement": "IC50", "result": 1.98, "unit": "nM"}]}, {"molecule": "COc1ccc2c(c1OC)CN(c1ncnn3c(C)nc([C@@H]4CCOC4)c13)CC2", "note": "[Example 17, 7,8-dimethoxy-2-{7-methyl-5-[(3S)-tetrahydrofuran-3-yl]imidazo[5,1-f][1,2,4]triazin-4-yl}-1,2,3,4-tetrahydroisoquinoline]", "values": [{"measurement": "IC50", "result": "< 0.24", "unit": "nM"}]}, {"molecule": "Cc1ccccc1-c1nc(C)n2ncnc(N3CCc4c(c(C(C)C)nn4C)C3)c12", "note": "[Example 10, 4-(3-Isopropyl-1-methyl-1,4,6,7-tetrahydro-5H-pyrazolo[4,3-c]pyridin-5-yl)-7-methyl-5-(2-methylphenyl)imidazo[5,1-f][1,2,4]triazine]", "values": [{"measurement": "IC50", "result": 0.56, "unit": "nM"}]}, {"molecule": "CCc1c2c(nn1C)CCN(c1ncnn3c(C)nc(-c4ccc(F)cc4Cl)c13)C2", "note": "[Example 120, 5-(2-chloro-4-fluorophenyl)-4-(3-ethyl-2-methyl-2,4,6,7-tetrahydro-5H-pyrazolo[4,3-c]pyridin-5-yl)-7-methylimidazo[5,1-f][1,2,4]triazine]", "values": [{"measurement": "IC50", "result": 0.233, "unit": "nM"}]}, {"molecule": "Cc1nc([C@@H]2CCOC2)c2c(N3CCc4c(O)nc(C5CCCC5)nc4C3)ncnn12", "note": "[Example 158, 2-cyclopentyl-7-{7-methyl-5-[(3S)-tetrahydrofuran-3-yl]imidazo[5,1-f][1,2,4]triazin-4-yl}-5,6,7,8-tetrahydropyrido[3,4-d]pyrimidin-4-ol]", "values": [{"measurement": "IC50", "result": 0.227, "unit": "nM"}]}, {"molecule": "COc1nc(C2CC2)nc2c1CN(c1ncnn3c(C)nc([C@@H]4CCOC4)c13)CC2", "note": "[Example 39, 2-cyclopropyl-4-methoxy-6-{7-methyl-5-[(3S)-tetrahydrofuran-3-yl]imidazo[5,1-f][1,2,4]triazin-4-yl}-5,6,7,8-tetrahydropyrido[4,3-d]pyrimidine]", "values": [{"measurement": "IC50", "result": 0.193, "unit": "nM"}]}, {"molecule": "COc1ccc2c(c1OC)CN(c1ncnn3c(C)nc(C4CCOCC4)c13)CC2", "note": "[Example 60, 7,8-dimethoxy-2-[7-methyl-5-(tetrahydro-2H-pyran-4-yl)imidazo[5,1-f][1,2,4]triazin-4-yl]-1,2,3,4-tetrahydroisoquinoline]", "values": [{"measurement": "IC50", "result": 1.35, "unit": "nM"}]}, {"molecule": "Cc1nc(-c2ccccc2F)c2c(N3CCc4nc(N(C)C)ccc4C3)ncnn12", "note": "[Example 67, 6-[5-(2-fluorophenyl)-7-methylimidazo[5,1-f][1,2,4]triazin-4-yl]-N,N-dimethyl-5,6,7,8-tetrahydro-1,6-naphthyridin-2-amine]", "values": [{"measurement": "IC50", "result": 0.325, "unit": "nM"}]}, {"molecule": "[2H]C([2H])([2H])n1c(C2CC2)nc2c(c1=O)CN(c1ncnn3c(C)nc([C@@H]4CCOC4)c13)CC2", "note": "[Example 144]", "values": [{"measurement": "IC50", "result": 0.0837, "unit": "nM"}]}, {"molecule": "Cc1nc([C@@H]2CCOC2)c2c(N3CCc4nc(C5CC5)ccc4C3)ncnn12", "note": "[Example 154, 2-cyclopropyl-6-{7-methyl-5-[(3S)-tetrahydrofuran-3-yl]imidazo[5,1-f][1,2,4]triazin-4-yl}-5,6,7,8-tetrahydro-1,6-naphthyridine]", "values": [{"measurement": "IC50", "result": 0.144, "unit": "nM"}]}, {"molecule": "Cc1nc2c(s1)CN(c1ncnn3c(C)nc([C@H]4CCCO4)c13)CC2", "note": "[Example 81]", "values": [{"measurement": "IC50", "result": 9.73, "unit": "nM"}]}, {"molecule": "Cc1ccccc1-c1nc(C)n2ncnc(N3CCc4nc(C5CC5)ncc4C3)c12", "note": "[Example 24, 2-cyclopropyl-6-[7-methyl-5-(2-methylphenyl)imidazo[5,1-f][1,2,4]triazin-4-yl]-5,6,7,8-tetrahydropyrido[4,3-d]pyrimidine]", "values": [{"measurement": "IC50", "result": "< 3.29", "unit": "nM"}]}, {"molecule": "Cc1nc(C2CCOCC2)c2c(N3CCn4ncc(C(F)(F)F)c4C3)ncnn12", "note": "[Example 102, 7-methyl-5-(tetrahydro-2H-pyran-4-yl)-4-[3-(trifluoromethyl)-6,7-dihydropyrazolo[1,5-a]pyrazin-5(4H)-yl]imidazo[5,1-f][1,2,4]triazine]", "values": [{"measurement": "IC50", "result": 3.94, "unit": "nM"}]}, {"molecule": "Cc1nc2c(s1)CN(c1ncnn3c(C)nc(-c4ccccc4F)c13)CC2", "note": "[Example 114, 5-(2-fluorophenyl)-7-methyl-4-(2-methyl-6,7-dihydro[1,3]thiazolo[5,4-c]pyridin-5(4H)-yl)imidazo[5,1-f][1,2,4]triazine]", "values": [{"measurement": "IC50", "result": 1.49, "unit": "nM"}]}, {"molecule": "COc1ccc2c(n1)CN(c1ncnn3c(C)nc(-c4ccccc4F)c13)CC2", "note": "[Example 69, 7-[5-(2-fluorophenyl)-7-methylimidazo[5,1-f][1,2,4]triazin-4-yl]-2-methoxy-5,6,7,8-tetrahydro-1,7-naphthyridine]", "values": [{"measurement": "IC50", "result": 7.3, "unit": "nM"}]}]}
